Measured values taken from patent publication US12428415B2, “Matriptase 2 inhibitors and uses thereof” (Disc Medicine, Inc., priority 2018, dated 2025).

Target: T1, Human Recombinant Matriptase 2 (Homo sapiens, UniProt Q8IU80)
T1 construct: purchased Enzo Life Sciences (an in-house preparation was also used) ALX-201-752-1
T1 sequence (Q8IU80 1-811): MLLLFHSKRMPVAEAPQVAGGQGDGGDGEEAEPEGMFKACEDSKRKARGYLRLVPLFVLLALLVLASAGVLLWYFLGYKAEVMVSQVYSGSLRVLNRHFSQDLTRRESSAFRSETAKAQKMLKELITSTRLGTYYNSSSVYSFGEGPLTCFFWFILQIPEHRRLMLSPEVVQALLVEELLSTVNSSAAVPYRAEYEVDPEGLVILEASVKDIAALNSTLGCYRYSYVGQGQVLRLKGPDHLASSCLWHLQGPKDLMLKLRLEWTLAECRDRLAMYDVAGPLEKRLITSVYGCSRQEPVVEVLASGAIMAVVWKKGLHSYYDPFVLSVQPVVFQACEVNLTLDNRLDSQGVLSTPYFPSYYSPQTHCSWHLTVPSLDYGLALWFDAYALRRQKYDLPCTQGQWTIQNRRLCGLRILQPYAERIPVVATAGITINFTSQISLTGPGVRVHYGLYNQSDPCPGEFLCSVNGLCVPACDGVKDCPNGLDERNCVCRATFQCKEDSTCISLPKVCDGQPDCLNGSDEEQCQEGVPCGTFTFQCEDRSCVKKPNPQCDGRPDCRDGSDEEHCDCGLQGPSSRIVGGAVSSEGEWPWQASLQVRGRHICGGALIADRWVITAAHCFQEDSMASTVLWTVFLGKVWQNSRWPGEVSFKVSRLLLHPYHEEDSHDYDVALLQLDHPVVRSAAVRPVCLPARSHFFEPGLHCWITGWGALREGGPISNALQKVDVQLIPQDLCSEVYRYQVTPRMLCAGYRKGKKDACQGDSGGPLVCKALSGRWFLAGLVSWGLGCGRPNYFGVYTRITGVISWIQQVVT
Assay: Matriptase 2 fluorescence based inhibition assay, Method B (50 mM TRIS pH 7.5, 150 mM NaCl, 0.01% gelatin)
Assay type: biochemical
Details: 1 uM compound; Assay Used = B
Summary of the method: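 Fluorogenic substrate Boc-Gln-Ala-Arg-7-amido-4-methylcoumarin (100 μM) cleavage read at Ex 360/Em 480 nm 60 min after addition, following 30 min enzyme–compound preincubation at 25° C. Enzyme was 7 nM commercial or 15 nM in-house; DMSO 1%. IC50s fitted by non-linear sigmoidal regression.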

For `CC(C)(C)OC(=O)N[C@H]1CC[C@H](NC(=O)c2cc3ccc(C(=N)N)cc3n2Cc2cccc3ccccc23)CC1` [Compound I-403], the “Mar-2 % inhibition at 1 uM” value was “A (A represents 0%≤I≤25%)”.
For `CC(C)(C)OC(=O)N[C@H]1CC[C@H](NC(=O)c2cc3ccc(C(=N)N)cc3n2Cc2ccc3ccccc3c2)CC1` [Compound I-402, tert-butyl ((1r,4r)-4-(6-carbamimidoyl-1-(naphthalen-2-ylmethyl)-1H-indole-2-carboxamido)cyclohexyl) carbamate], the “Mar-2 % inhibition at 1 uM” value was “A (A represents 0%≤I≤25%)”.

Same assay, conditions: 1 uM compound; Assay Used = B (Method B)

For `N=C(N)c1ccc2cc(C(=O)N[C@H]3CC[C@H](N)CC3)n(Cc3cncc4ccccc34)c2c1` [Compound I-687], the “Mar-2 % inhibition at 1 uM” value was “C (C represents 50%≤I≤75%)”.

Same assay, conditions: 1 uM compound; Assay Used = B (Method B); read-out: Mar-2 % inhibition at 1 uM

Compared with `N=C(N)c1ccc2cc(C(=O)N[C@H]3CC[C@H](N)CC3)n(Cc3ccc(C(=O)N4CCCC4)c4ccccc34)c2c1` [Compound I-790], `N=C(N)c1ccc2cc(C(=O)N[C@H]3CC[C@H](N)CC3)n(-c3cc(CO)c4ccccc4c3)c2c1` [Compound I-681] is higher in inhibition at 1 µM: 25 to 50% for the first, 75 to 100% for the second.

First: NC(=NO)c1ccc2cc(C(=O)O)n(Cc3cc(Oc4ccccc4)cc4ccccc34)c2c1 [Compound I-665]
Second: N=C(N)c1ccc2cc(C(=O)NCCN)n(Cc3cc(Oc4ccccc4)cc4ccccc34)c2c1 [Compound I-634]
The inhibition at 1 µM of the first is lower: 0 to 25% for the first, 75 to 100% for the second.

Compared with `N=C(N)c1ccc2cc(-c3ncco3)n(Cc3cccc4ccccc34)c2c1` [Compound I-748, 1-(naphthalen-1-ylmethyl)-2-(oxazol-2-yl)-1H-indole-6-carboximidamide], `CCOC(=O)c1cc2ccc(C(=N)N)cc2n1Cc1cccc2ccccc12` [Compound I-601] is lower in inhibition at 1 µM: 75 to 100% for the first, 50 to 75% for the second.

`N=C(N)c1cc2c(cn1)cc(C(=O)NC1CCC(N)CC1)n2Cc1cccc2ccccc12` (stereo not drawn) [Compound I-690] and `N=C(N)c1ccc2cc(C(=O)N[C@H]3CC[C@H](N)CC3)n(Cc3cc(OS(=O)(=O)c4ccccc4)cc4ccccc34)c2c1` [Compound I-608] fall in the same range of inhibition at 1 µM: 75 to 100% for the first, 75 to 100% for the second.

Compared with `N=C(N)c1ccc2cc(C(=O)Nc3ccc4ncccc4c3)n(Cc3cccc4ccccc34)c2c1` [Compound I-771], `N=C(N)c1ccc2cc(C(=O)OCCN)n(Cc3cccc4ccccc34)c2c1` [Compound I-745] is lower in inhibition at 1 µM: 25 to 50% for the first, 0 to 25% for the second.

`N/C(=N\O)c1ccc2c(c1)cc(C(=O)O)n2Cc1cccc2ccccc12` [Compound I-660] and `N=C(N)c1ccc2c(c1)cc(C(=O)O)n2Cc1cccc2ccccc12` [Compound I-651] fall in the same range of inhibition at 1 µM: 0 to 25% for the first, 0 to 25% for the second.

First: CCOC(=O)c1cc2ccc(C(=N)NC(=O)OCC(C)C)cc2n1Cc1cc(Oc2ccccc2)cc2ccccc12 [Compound I-627]
Second: N=C(N)c1ccc2cc(C(=O)O)n(Cc3cc(Oc4ccncc4)cc4ccccc34)c2c1 [Compound I-632]
The inhibition at 1 µM of the first is lower: 0 to 25% for the first, 50 to 75% for the second.

`N=C(N)c1ccc2cc(N3CCOCC3)n(Cc3cccc4ccccc34)c2c1` [Compound I-644, 2-morpholino-1-(naphthalen-1-ylmethyl)-1H-indole-6-carboximidamide] and `N=C(N)c1ccc2cc(C(=O)O)n(Cc3cc(Oc4cccnn4)cc4ccccc34)c2c1` [Compound I-610] fall in the same range of inhibition at 1 µM: 25 to 50% for the first, 25 to 50% for the second.

First: CCOC(=O)c1cc2ccc(/C(N)=N\O)cc2n1Cc1cc(Oc2ncccn2)cc2ccccc12 [Compound I-630, ethyl (Z)-6-(N′-hydroxycarbamimidoyl)-1-((3-(pyrimidin-2-yloxy)naphthalen-1-yl)methyl)-1H-indole-2-carboxylate]
Second: Cc1ccc(S(=O)(=O)Oc2cc(Cn3c(C(=O)O)cc4ccc(C(=N)N)cc43)c3ccccc3c2)cc1 [Compound I-647]
The inhibition at 1 µM of the first is lower: 0 to 25% for the first, 75 to 100% for the second.

In the case of `CC(C)COC(=O)NC(=N)c1ccc2cc(C(=O)O)n(Cc3cccc4ccccc34)c2n1` [Compound I-674], the inhibition at 1 µM is reported as 25 to 50%.

Same assay, conditions: 1 uM compound; Assay Used = B; read-out: Mar-2 % inhibition at 1 uM

First: N=C(N)c1ccc2cc(C(=O)N[C@H]3CC[C@H](N)CC3)n(Cc3cncc4ccccc34)c2c1 [Compound I-507]
Second: N=C(N)c1ccc2cc(C(=O)N[C@H]3CC[C@@H](N)CC3)n(Cc3cccc4ccccc34)c2c1 [Compound I-439]
The inhibition at 1 µM of the first is lower: 50 to 75% for the first, 75 to 100% for the second.

`N=C(N)c1ccc2cc(C(=O)NC3CCNC(=O)C3)n(Cc3cc(Oc4ncccn4)cc4ccccc34)c2c1` (racemic) [Compound I-560] and `N=C(N)c1ccc2cc(C(=O)Nc3nnn[nH]3)n(Cc3cc(Oc4ncccn4)cc4ccccc34)c2c1` [Compound I-572] fall in the same range of inhibition at 1 µM: 50 to 75% for the first, 50 to 75% for the second.

`NCc1ccc2cc(C(=O)NC3CCNCC3)n(Cc3cccc4ccccc34)c2c1` [Compound I-533] and `NCc1ccc2cc(C(=O)NC3CCCC(N)C3)n(Cc3cccc4ccccc34)c2c1` (stereo not drawn) [Compound I-540] fall in the same range of inhibition at 1 µM: 25 to 50% for the first, 25 to 50% for the second.

First: NCCCCNC(=O)c1cc2ccc(CN)cc2n1Cc1cccc2ccccc12 [Compound I-541]
Second: N=C(N)c1ccc2cc(C(=O)O)n(Cc3cccc4ccccc34)c2c1 [Compound I-458, 6-carbamimidoyl-1-(naphthalen-1-ylmethyl)-1H-indole-2-carboxylic Acid]
The inhibition at 1 µM of the first is lower: 0 to 25% for the first, 75 to 100% for the second.

`CCNC(=N)c1ccc2cc(C(=O)N[C@H]3CC[C@H](NC(=O)OC(C)(C)C)CC3)n(Cc3ccc4ccccc4c3)c2c1` [Compound I-411, Tert-butyl ((1r,4r)-4-(6-(N-ethylcarbamimidoyl)-1-(naphthalen-2-ylmethyl)-1H-indole-2-carboxamido)cyclohexyl)carbamate] and `CC(C)(C)OC(=O)NC(=N)c1ccc2cc(C(=O)N3CC[C@H](O)C3)n(Cc3cccc4ccccc34)c2c1` (stereo in doubt) [Compound I-424] fall in the same range of inhibition at 1 µM: 0 to 25% for the first, 0 to 25% for the second.

First: CS(=O)(=O)Nc1cc(Cn2c(C(=O)O)cc3ccc(C(=N)N)cc32)c2ccccc2c1 [Compound I-546]
Second: N=C(N)c1ccc2cc(C(=O)O)n(Cc3cc(S(=O)(=O)Nc4ccccc4)cc4ccccc34)c2c1 [Compound I-585]
The inhibition at 1 µM of the first is higher: 75 to 100% for the first, 50 to 75% for the second.

`Cn1nc(C(F)(F)F)c(C=O)c1Oc1cc(Cn2c(C(=O)O)cc3ccc(C(=N)N)cc32)c2ccccc2c1` [Compound I-584] and `CN(C)C(=O)Sc1cc(Cn2c(C(=O)O)cc3ccc(C(=N)N)cc32)c2ccccc2c1` [Compound I-575] fall in the same range of inhibition at 1 µM: 0 to 25% for the first, 0 to 25% for the second.

Compared with `N=C(N)c1ccc2cc(C(=O)N3CCOCC3)n(Cc3cccc4ccccc34)c2c1` [Compound I-468], `CN(C(=O)c1cc2ccc(C(=N)N)cc2n1Cc1cccc2ccccc12)[C@H]1CC[C@H](N)CC1` [Compound I-451] is higher in inhibition at 1 µM: 25 to 50% for the first, 50 to 75% for the second.

`N=C(N)c1ccc2cc(C(=O)OCCO)n(Cc3cc(Oc4ncccn4)cc4ccccc34)c2c1` [Compound I-565] and `N=C(N)c1ccc2cc(C(=O)NCCS(N)(=O)=O)n(Cc3cc(Oc4ncccn4)cc4ccccc34)c2c1` [Compound I-547] fall in the same range of inhibition at 1 µM: 75 to 100% for the first, 75 to 100% for the second.

Compared with `N=C(N)c1ccc2cc(C(=O)NCC3CCNCC3)n(-c3ccc4ccccc4c3)c2c1` [Compound I-490, 6-carbamimidoyl-1-(naphthalen-2-yl)-N-(piperidin-4-ylmethyl)-1H-indole-2-carboxamide], `N=C(N)c1ccc2c(C(=O)N[C@H]3CC[C@H](N)CC3)cn(Cc3ccc4ccccc4c3)c2c1` [Compound I-520] is lower in inhibition at 1 µM: 50 to 75% for the first, 0 to 25% for the second.

`CC(N)c1ccc2cc(C(=O)N[C@H]3CC[C@H](N)CC3)n(Cc3cccc4ccccc34)c2c1` (stereo partly drawn) [Compound I-580, N-((1r,4r)-4-aminocyclohexyl)-6-(1-aminoethyl)-1-(naphthalen-1-ylmethyl)-1H-indole-2-carboxamide] and `CN1CCC(NC(=O)c2cc3ccc(C(N)=O)cc3n2Cc2cccc3ccccc23)CC1` [Compound I-457] fall in the same range of inhibition at 1 µM: 0 to 25% for the first, 0 to 25% for the second.

Same assay, conditions: compound at 1 uM; Assay Used: B; read-out: Mar-2 % inhibition at 1 uM

First: CN(C)CCCOc1ccc2c(Cn3c(C(=O)N[C@H]4CC[C@H](N)CC4)cc4ccc(C(=N)N)cc43)cccc2c1 [Compound I-804, N-((1r,4r)-4-aminocyclohexyl)-6-carbamimidoyl-1-((6-(3-(dimethylamino)propoxy)naphthalen-1-yl)methyl)-1H-indole-2-carboxamide]
Second: C[C@@H](c1cccc2ccccc12)n1c(C(=O)N[C@H]2CC[C@H](N)CC2)cc2ccc(C(=N)N)cc21 [Compound I-805]
The inhibition at 1 µM of the first is higher: 75 to 100% for the first, 0 to 25% for the second.

With `N=C(N)c1ccc2cc(C(=O)NCCc3c[nH]c4ccc(O)cc34)n(Cc3cc(Oc4ncccn4)cc4ccccc34)c2c1` [Compound I-826] the inhibition at 1 µM was 25 to 50%.

Same assay, conditions: read-out: Mar-2 % inhibition at 1 uM

`N=C(NC(=O)Oc1ccccc1)c1ccc2cc(C(=O)O)n(Cc3cc(Oc4ncccn4)cc4ccccc34)c2c1` [Compound I-551] was tested, and the inhibition at 1 µM was 0 to 25%.
